Test results: patent publication US8785457B2 (Cellzome Limited, priority 2009, dated 2014)

What was measured:
[1] = test system: Akt serine-473 phosphorylation; assay: In vitro Phospho-Akt cellular assay (pAkt S473) in HEK293T/17 cells; format: cell-based; conditions: Homo sapiens, 2 hours
Description: Activation of mTOR signaling results in phosphorylation of several downstream targets. In cells, mTOR exists in two different protein complexes. The mTOR Complex-1 (mTORC1) phosphorylates and activates S6 Kinase 1 (S6K1) and S6 Kinase 2 (S6K2) (also known as p70S6K) which then phosphorylate S6 Ribosomal Protein (S6RP) (also known as RPS6)3. S6RP is phosphorylated on serine 235, serine 236, serine 240 and serine 244 by both pS6K1 and pS6K2. The mTOR Complex-2 (mTORC2) phosphorylates AKT on serine 473 which activates the AKT signaling pathway.
The assay measures a test compound's inhibition of S6RP serine-240/244 phosphorylation and inhibition of Akt serine-473 phosphorylation in human embryonic kidney derived HEK293T/17 cells (ATCC CRL-11268).
The HEK293T/17 cell line is maintained in DMEM media (Invitrogen catalogue number 41965-039) supplemented with 10% FCS at 37° C. in a 5% CO2 humidified incubator.
Cells are seeded in 96-well plates at 40,000 cells/well (pS6RP S240/244 assay) or 80,000 cells/well (pAkt S473 assay) in 90 μl growth media (DMEM, 2% FCS). Plates are incubated for 1 hour in a humidified incubator to allow the cells to adhere. Cells are treated with 8 concentrations of test compounds or DMSO alone for controls (final DMSO concentration 0.1%) and incubated at 37° C. for 2 hours. Then 20 μl of 5× concentrated lysis buffer (750 mM NaCl, 100 mM Tris pH7.4, 5 mM ADTA, 5 mM EGTA, 5% Triton X-100) is added, plates are sealed and incubated for 15 minutes at 4° C. with gentle shaking. After cell lysis, 25 μl cell lysate is transferred to a MesoScale plate coated with an antibody to pS6RP Ser240/244 (MesoScale Discovery K150DGD-3) or an antibody to pAkt Ser 473 (MesoScale Discovery K151DGD-3). Plates have been blocked before by incubation with 150 μl MesoScale Discovery Blocking Solution-A for 1 hour at room temperature followed by washing with 150 μl 1× Tris wash buffer per well. After the transfer of the cell lysate to the MSD plate, the pS6RP (or pAkt) protein is captured on the coated antibody by incubation at room temperature for 1 hour with gentle shaking. After the capture step the plate is washed three times with 150 μl of 1× Tris wash buffer per well. Then 25 μl detection antibody conjugated with a Sulfo-Tag is added and incubated for 1 hour at room temperature with gentle shaking. Subsequently the antibody solution is removed and the plate is washed 3 times with 150 μl×Tris wash buffer per well and 150 μl Read buffer is added. The plates are analysed on a MSD 2400 Plate Reader (MesoScale Discovery). Data analysis is performed using nonlinear regression for a sigmoidal dose-response with a variable slope.

[2] = target: T1, PI3K delta (PI3 Kd) (Homo sapiens, UniProt O00329); assay: kinobeads assay, PI3K delta; format: binding; conditions: Further Kinobeads Data; read-out: PI3Kd
T1 construct: endogenous in cells; host or cells: Jurkat, clone E6-1 (ATCC TIB-152) cell lysate
In short: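 Competitive binding in Jurkat cell lysate (5 mg/mL protein) against beads carrying an immobilized phenylmorpholin-chromen ligand, in DP buffer pH 7.4 with NP40, DTT and NaF. Bead-bound kinases were eluted and quantified by antibody dot blot with infrared detection, and IC50 was taken from dose-response curves of a 1:3 dilution series.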

T1 sequence (O00329 whole entry): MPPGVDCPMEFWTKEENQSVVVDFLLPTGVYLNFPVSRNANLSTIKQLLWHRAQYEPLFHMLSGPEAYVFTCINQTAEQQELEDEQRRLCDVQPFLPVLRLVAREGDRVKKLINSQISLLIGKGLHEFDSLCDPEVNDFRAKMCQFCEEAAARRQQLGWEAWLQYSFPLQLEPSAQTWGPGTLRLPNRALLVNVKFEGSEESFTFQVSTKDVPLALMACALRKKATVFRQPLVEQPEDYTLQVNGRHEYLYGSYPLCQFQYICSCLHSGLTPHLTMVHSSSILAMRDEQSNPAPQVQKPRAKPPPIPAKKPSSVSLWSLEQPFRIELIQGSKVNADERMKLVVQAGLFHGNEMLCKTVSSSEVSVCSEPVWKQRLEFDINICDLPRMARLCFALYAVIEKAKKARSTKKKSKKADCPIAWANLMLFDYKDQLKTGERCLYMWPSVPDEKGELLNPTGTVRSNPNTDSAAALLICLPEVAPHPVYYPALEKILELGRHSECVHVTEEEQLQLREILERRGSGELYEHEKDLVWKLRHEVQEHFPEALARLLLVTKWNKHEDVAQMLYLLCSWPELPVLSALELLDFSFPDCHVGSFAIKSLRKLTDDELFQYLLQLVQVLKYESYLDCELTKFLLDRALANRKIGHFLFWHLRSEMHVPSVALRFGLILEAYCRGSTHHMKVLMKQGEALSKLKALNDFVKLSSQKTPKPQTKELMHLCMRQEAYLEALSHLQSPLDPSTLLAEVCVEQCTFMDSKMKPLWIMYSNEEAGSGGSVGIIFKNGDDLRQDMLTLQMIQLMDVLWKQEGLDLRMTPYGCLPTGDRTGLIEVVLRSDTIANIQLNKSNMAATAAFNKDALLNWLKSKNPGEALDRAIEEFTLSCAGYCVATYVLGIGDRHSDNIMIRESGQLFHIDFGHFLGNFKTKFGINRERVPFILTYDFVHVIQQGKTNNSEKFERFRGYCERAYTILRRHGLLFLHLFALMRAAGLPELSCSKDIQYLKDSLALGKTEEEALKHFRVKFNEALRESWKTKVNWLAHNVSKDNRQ
T1 sequence (P27986 whole entry partner): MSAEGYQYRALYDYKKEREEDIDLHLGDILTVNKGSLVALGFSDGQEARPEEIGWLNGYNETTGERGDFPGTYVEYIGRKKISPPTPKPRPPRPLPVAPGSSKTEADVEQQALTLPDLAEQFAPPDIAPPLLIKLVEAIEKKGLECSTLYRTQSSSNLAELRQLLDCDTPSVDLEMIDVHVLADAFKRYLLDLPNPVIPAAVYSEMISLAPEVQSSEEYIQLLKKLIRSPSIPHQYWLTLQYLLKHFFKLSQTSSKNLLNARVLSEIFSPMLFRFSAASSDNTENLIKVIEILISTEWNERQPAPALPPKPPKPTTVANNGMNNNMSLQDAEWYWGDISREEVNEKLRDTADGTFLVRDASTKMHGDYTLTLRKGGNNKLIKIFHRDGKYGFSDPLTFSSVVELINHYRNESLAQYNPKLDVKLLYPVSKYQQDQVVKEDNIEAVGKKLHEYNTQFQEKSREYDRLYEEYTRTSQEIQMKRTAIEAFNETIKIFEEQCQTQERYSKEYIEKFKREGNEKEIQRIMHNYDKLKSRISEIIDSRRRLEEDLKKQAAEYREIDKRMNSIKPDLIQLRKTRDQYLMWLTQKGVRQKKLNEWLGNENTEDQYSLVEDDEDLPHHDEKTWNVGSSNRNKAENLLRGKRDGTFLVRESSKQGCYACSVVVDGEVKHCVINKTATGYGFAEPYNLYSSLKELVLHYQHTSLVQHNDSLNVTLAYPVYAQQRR

Row | IC50 [1] [nM] | IC50 [2] [nM] | Structure (SMILES)
1 | 52 | > 10000 | C[C@H]1COCCN1c1nc(-c2ccc(NC(=O)NC3CC3)cc2F)nc2c1CN(C(=O)N(C)C)C2 [Example 178, (S)-2-(4-(3-cyclopropylureido)-2-fluorophenyl)-N,N-dimethyl-4-(3-methylmorpholino)-5H-pyrrolo[3,4-d]pyrimidine-6(7H)-carboxamide]
2 | 31 | > 10000 | CCOC(=O)N1Cc2nc(-c3ccc(NC(=O)NC4CC4)cc3F)nc(N3CCOC[C@H]3C)c2C1 [Example 179, (R)-ethyl 2-(4-(3-cyclopropylureido)-2-fluorophenyl)-4-(3-methylmorpholino)-5H-pyrrolo[3,4-d]pyrimidine-6(7H)-carboxylate]
